{"source": "patent US11253486B2", "about": "“Bakuchiol compositions for treatment of post inflammatory hyperpigmentation” (Unigen, Inc., priority 2011, dated 2022)", "key": {"[1]": {"system": "acne lesions and Post Inflammatory Hyperpigmentation", "details": "OTC drugs, Studies 1-3, 10 or 12 week studies; cited from earlier work"}, "[2]": {"system": "subjects with PIH related to acne", "test": "Double blind placebo and positive controlled study for PIH related to acne (Example 11)", "format": "in vivo, human", "details": "for PIH grade, mean: cream twice a day to the face", "experimental": "The safety and efficacy of a 0.5% (wt/wt) cream of bakuchiol (UP256) was evaluated in a double blind placebo and positive controlled study for the treatment of PIH related to acne. The study evaluated a bakuchiol cream at 0.5% concentration, a 2% Salicylic acid cream and a placebo cream (Vehicle) in an Asian population. The participants were instructed to apply the study creams to the face twice a day (AM/PM). Study participants were given instructions for application and provided with sunscreen.\nThe study population consisted of male and female subjects older than 18 and younger than 40 years and in generally good health as determined by a medical history. The bakuchiol study arm enrolled 18 subjects, the Salicylic acid (SAL) study arm enrolled 20 subjects, and the placebo study arm enrolled 19 subjects.\nThe PIH grade is a measure of the severity of the hyperpigmentation (higher number=more severe pigmentation).\nPrimary Study Objectives: • 1. PIH IGA Time Frame: Baseline and weeks 2, 4 and 8 • 2. PIH % Distribution Time Frame: Baseline and weeks 2, 4 and 8\nPIH efficacy was evaluated based on changes from baseline (p<0.05) and over other treatment groups (p<0.05) using t-test or/and ANOVA.\nSubject's Assessment questionnaires and Tolerability Assessments were collected at Baseline and weeks 2, 4, and 8. Urine pregnancy tests for females of childbearing potential were collected at Baseline and week 8.\nThe following data was collected: • 1. Change from baseline in PIH Severity; • 2. Change from baseline in the PIH Grade; and • 3. Change from baseline in the Lesion counts\nThe data was analyzed from Investigator evaluations at each visit and from photographs taken at the specified time points. The photographs from baseline, week 4, and week 8 were evaluated by a second group of investigators and two independent dermatologists before the study was unblended to further confirm that the population met criteria. The data analyzed is based on confirmed evaluations, there was no photo for week two therefore week two data is not included in the analysis."}, "mushroom tyrosinase": {"molecular_target": "mushroom tyrosinase (Agaricus bisporus, UniProt C7FF04)", "sequence (C7FF04 2-392)": "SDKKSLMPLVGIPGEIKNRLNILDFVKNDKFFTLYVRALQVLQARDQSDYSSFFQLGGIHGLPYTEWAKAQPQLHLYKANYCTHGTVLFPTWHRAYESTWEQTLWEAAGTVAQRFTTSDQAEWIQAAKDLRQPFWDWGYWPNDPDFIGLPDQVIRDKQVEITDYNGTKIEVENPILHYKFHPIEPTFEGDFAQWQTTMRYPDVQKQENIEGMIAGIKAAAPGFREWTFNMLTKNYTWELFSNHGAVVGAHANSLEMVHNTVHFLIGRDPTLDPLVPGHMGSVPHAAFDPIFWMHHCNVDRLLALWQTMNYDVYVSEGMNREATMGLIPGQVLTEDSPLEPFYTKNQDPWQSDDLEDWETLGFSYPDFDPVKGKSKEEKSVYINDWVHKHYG", "test": "Tyrosinase inhibition assay (L-DOPA to dopachrome)", "format": "biochemical", "details": "eight different dosages; <100 ppm furanocoumarins; FIG. 4", "method": "A tyrosinase inhibition assay was carried out using the method reported by Jones et al. (2002) Pigment. […] Using this method, the conversion of L-Dopa, a substrate of tyrosinase, into dopachrome was followed by monitoring absorption at 450 nm. Tyrosinase was prepared in 50 mM potassium phosphate buffer, pH 6.8 (assay buffer) at 2000 U/ml and stored at −20° C. in 1 ml aliquots prior to use. For use in assays, stock enzyme solutions were thawed and diluted to 200 U/ml with assay buffer. A 2 mM working solution of substrate, L-DOPA, was prepared in assay buffer for each assay. Samples were dissolved in 10% DMSO (0.5 ml) and diluted to 5 ml with assay buffer. The reaction mixture comprised 0.050 ml 2 mM L-DOPA, 0.050 ml 200 U/ml mushroom tyrosinase and 0.050 ml inhibitor. Reaction volume was adjusted to 200 μl with assay buffer. Assays were performed in 96 well Falcon 3097 flat-bottom microtiter plates (Beckton Dickinson, N.J.). Appearance of dopachrome was measured with a WALLAC 1420 Multilable Counter (Turku, Finland). Average velocity was determined from linear enzyme rate as measured by change in absorbance (ΔA450) at 450 nm per minute. Percent inhibition of tyrosinase by test samples was determined by comparison of absorbance of samples versus control using formula (1): (Negative control absorption−sample absorption)/Negative control absorption×100 (1)"}, "[3]": {"test": "Percutaneous absorption ex-vivo test", "format": "in vitro ADME, human", "details": "0.5% formulation concentration, single application, over 48 hours", "from_the_text": "The partition coefficient of a chemical compound provides a thermodynamic measure of its hydrophilicity/lipophilicity balance and thus its potential bioavailability. […] The skin penetration of the active compound—bakuchiol in a skin care cream was quantified in an ex-vivo test on isolated human skin. […] In certain embodiments, the disclosed compositions comprise a skin penetration enhancer.\nTwo natural bakuchiol compositions comprising 86.54% bakuchiol and 77.02% bakuchiol and a combined total of less than 100 ppm psoralen and angelicin (isopsoralen) were formulated in a cosmetic vehicle or complicated skin care cream and tested on in vitro models or in human clinical trials for their safety profile."}, "[4]": {"details": "questionnaire and investigator safety evaluation, count"}}, "data": [{"compound": "O=C(OOC(=O)c1ccccc1)c1ccccc1", "note": "[Benzoyl peroxide (5%), Benzoyl peroxide]", "values": [{"measurement": "Improvement of Post Inflammatory Hyperpigmentation", "setting": "[1]", "result": 0}, {"measurement": "Mean percent reduction in inflammatory lesion counts", "setting": "[1]", "result": 32, "unit": "%"}, {"measurement": "Mean percent reduction in non-inflammatory lesion counts", "setting": "[1]", "result": 22, "unit": "%"}, {"measurement": "Mean percent reduction in total lesion counts", "setting": "[1]", "result": 28, "unit": "%"}]}, {"compound": "O=C(O)c1ccccc1O", "note": "[Salicylic Acid, Salicylic acid]", "values": [{"measurement": "Inflammatory acne lesions, mean", "setting": "[2]; Baseline", "result": 11.2}, {"measurement": "PIH grade, mean", "setting": "[2]; Baseline", "result": 3.15}, {"measurement": "Inflammatory acne lesions, mean", "setting": "[2]; Week 4", "result": 9.25}, {"measurement": "PIH grade, mean", "setting": "[2]; Week 4", "result": 3.2}, {"measurement": "Inflammatory acne lesions, mean", "setting": "[2]; Week 8", "result": 8.65}, {"measurement": "PIH grade, mean", "setting": "[2]; Week 8", "result": 3.2}, {"measurement": "Subject assessment: Itching/Burning", "setting": "[2]; [4]", "result": 4}, {"measurement": "Subject assessment: Skin Discomfort", "setting": "[2]; [4]", "result": 2}]}, {"compound": "C=CC(C)(/C=C/c1ccc(O)cc1)CCC=C(C)C", "note": "(centres unmarked) [bakuchiol]", "values": [{"measurement": "tyrosinase inhibition activity", "setting": "mushroom tyrosinase", "result": "no tyrosinase inhibition function"}, {"measurement": "skin penetration / percutaneous absorption", "setting": "[3]", "result": "good skin penetration and bioavailability"}]}]}
